Counter-ions that a name gives are not always drawn.
system: P. falciparum-infected RBCs; experiment: Glycolysis IC50 / lactate excretion assay in P. falciparum-infected RBCs; type: cell-based; conditions: Plasmodium falciparum
Method: The cultures were harvested and DNA quantitated using the standard Sybr Green I fluorescence assay. […] The culture medium was harvested and extracellular lactic acid was quantified by LC-MS.
P. falciparum (HB-3 strain) cultures were maintained in standard culture conditions. […] Parasites were grown in O+ donor blood, 2% hematocrit.
Parasite cultures were seeded in 96-well plates (1% hematocrit, 1-2% starting parasitemia, 100 μL total volume) with varying concentrations of the test compounds in a final concentration of 0.1% DMSO. Plates were cultured for 48 hours before harvesting the culture medium for LC-MS analysis. At harvest, thin smears were taken and examined microscopically to observe any alterations in parasite morphology.
Culture medium samples were diluted in 9 volumes of methanol containing U-^13C-glucose and 1-^13C-lactate (final concentration 0.25 mM each). The samples were clarified by centrifugation at 13,000 RCF for 10 minutes. […] Mobile phase A was acetonitrile, and mobile phase B was 20 mM ammonium acetate (pH 9.4).
The sample was analyzed on an Exactive mass spectrometer (Thermo Scientific) to determine the chromatographic peak areas the analytes and internal standards. Glucose and lactate were quantified by taking the ratio of the unlabeled peak area to the area of the isotope-labeled standard.

IC50 [nM]	Structure (SMILES)
101 to 250	O=C(COc1cccc(-c2nc(Nc3ccc(-c4cn[nH]c4)cc3)c3ccncc3n2)c1)NC1CCCC1 [Example 21, 2-(3-(4-((4-(1H-pyrazol-4-yl)phenyl)amino)pyrido[3,4-d]pyrimidin-2-yl)phenoxy)-N-cyclopentylacetamide]
101 to 250	CC(=O)N1CCc2nc(-c3cccc(OCC(=O)NCC(C)C)c3)nc(Nc3ccc(-c4cn[nH]c4)cc3)c2C1 [Example 59, 2-(3-(4-((4-(1H-pyrazol-4-yl)phenyl)amino)-6-acetyl-5,6,7,8-tetrahydropyrido[4,3-d]pyrimidin-2-yl)phenoxy)-N-isobutylacetamide]
10 to 100	CC(=O)N1CCc2nc(-c3cccc(OCC(=O)NC(C)C)c3)nc(Nc3ccc(-c4cn[nH]c4)cc3)c2C1 [Example 44, 2-(3-(4-((4-(1H-pyrazol-4-yl)phenyl)amino)-6-acetyl-5,6,7,8-tetrahydropyrido[4,3-d]pyrimidin-2-yl)phenoxy)-N-isopropylacetamide]
101 to 250	Cn1ncc2c(Nc3ccc(-c4cn[nH]c4)cc3)nc(-c3cccc(OCC(=O)NC4CCC4)c3)nc21 [Example 15, 2-(3-(4-((4-(1H-pyrazol-4-yl)phenyl)amino)-1-methyl-1H-pyrazolo[3,4-d]pyrimidin-6-yl)phenoxy)-N-cyclobutylacetamide]
10 to 100	CCC(CC)NC(=O)COc1cccc(-c2nc3c(c(Nc4ccc(-c5cn[nH]c5)cc4)n2)CN(C(C)=O)CC3)c1 [Example 45, 2-(3-(4-((4-(1H-pyrazol-4-yl)phenyl)amino)-6-acetyl-5,6,7,8-tetrahydropyrido[4,3-d]pyrimidin-2-yl)phenoxy)-N-(pentan-3-yl)acetamide]
101 to 250	CC(C)(C)NC(=O)COc1cccc(-c2nc(Nc3ccc(-c4cn[nH]c4)cc3)c3cnccc3n2)c1 [Example 58, 2-(3-(4-((4-(1H-pyrazol-4-yl)phenyl)amino)pyrido[4,3-d]pyrimidin-2-yl)phenoxy)-N-(tert-butyl)acetamide]
101 to 250	O=C(COc1cccc(-c2nc3c(c(Nc4ccc(-c5cn[nH]c5)cc4)n2)COC3)c1)NC1CCC1 [Example 12]
251 to 500	O=C(COc1cccc(-c2nc3c(c(Nc4ccc(-c5cn[nH]c5)cc4)n2)COC3)c1)NC1CC(F)(F)C1 [Example 32, 2-(3-(4-((4-(1H-pyrazol-4-yl)phenyl)amino)-5,7-dihydrofuro[3,4-d]pyrimidin-2-yl)phenoxy)-N-(3,3-difluorocyclobutyl)acetamide]
101 to 250	CC(C)(C)NC(=O)COc1cccc(-c2nc3c(c(Nc4ccc(-c5cn[nH]c5)cc4)n2)COC3)c1 [Example 26, 2-(3-(4-((4-(1H-pyrazol-4-yl)phenyl)amino)-5,7-dihydrofuro[3,4-d]pyrimidin-2-yl)phenoxy)-N-(tert-butyl)acetamide dihydrochloride]
101 to 250	CC(=O)N1CCc2nc(-c3cccc(OCC(=O)NC4CCCC4)c3)nc(Nc3ccc(-c4cn[nH]c4)cc3)c2C1 [Example 57, 2-(3-(4-((4-(1H-pyrazol-4-yl)phenyl)amino)-6-acetyl-5,6,7,8-tetrahydropyrido[4,3-d]pyrimidin-2-yl)phenoxy)-N-cyclopentylacetamide]
251 to 500	O=C(COc1cccc(-c2nc(Nc3ccc(-c4cn[nH]c4)cc3)c3ncsc3n2)c1)NC1CCCC1 [Example 24, 2-(3-(7-((4-(1H-pyrazol-4-yl)phenyl)amino)thiazolo[5,4-d]pyrimidin-5-yl)phenoxy)-N-cyclopentylacetamide]
101 to 250	CC(C)NC(=O)COc1cccc(-c2nc(Nc3ccc(-c4cn[nH]c4)cc3)c3ccncc3n2)c1 [Example 19, 2-(3-(4-((4-(1H-pyrazol-4-yl)phenyl)amino)pyrido[3,4-d]pyrimidin-2-yl)phenoxy)-N-isopropylacetamide]
251 to 500	CC(C)NC(=O)COc1cccc(-c2nc(Nc3ccc(-c4cn[nH]c4)cc3)c3ncsc3n2)c1 [Example 22, 2-(3-(7-((4-(1H-pyrazol-4-yl)phenyl)amino)thiazolo[5,4-d]pyrimidin-5-yl)phenoxy)-N-isopropylacetamide]
101 to 250	CC(C)CNC(=O)COc1cccc(-c2nc3c(c(Nc4ccc(-c5cn[nH]c5)cc4)n2)COC3)c1 [Example 29, 2-(3-(4-((4-(1H-pyrazol-4-yl)phenyl)amino)-5,7-dihydrofuro[3,4-d]pyrimidin-2-yl)phenoxy)-N-isobutylacetamide]
101 to 250	O=C(COc1cccc(-c2nc(Nc3ccc(-c4cn[nH]c4)cc3)c3ccncc3n2)c1)NC1CCC1 [Example 20, 2-(3-(4-((4-(1H-pyrazol-4-yl)phenyl)amino)pyrido[3,4-d]pyrimidin-2-yl)phenoxy)-N-cyclobutylacetamide]
10 to 100	CC(C)CNC(=O)COc1cccc(-c2nc3c(c(Nc4ccc(-c5cn[nH]c5)cc4)n2)COCC3)c1 [Example 46, 2-(3-(4-((4-(1H-pyrazol-4-yl)phenyl)amino)-7,8-dihydro-5H-pyrano[4,3-d]pyrimidin-2-yl)phenoxy)-N-isobutylacetamide]

IC50 [nM]	Structure (SMILES)
10 to 100	CC(C)CNC(=O)COc1cccc(-c2nc(Nc3ccc(-c4cn[nH]c4)cc3)c3cnn(C)c3n2)c1 [Example 18, 2-(3-(4-((4-(1H-pyrazol-4-yl)phenyl)amino)-1-methyl-1H-pyrazolo[3,4-d]pyrimidin-6-yl)phenoxy)-N-isobutylacetamide]
501 to 1000	CC(C)NC(=O)COc1cccc(-c2nc3c(c(Nc4ccc(-c5cn[nH]c5)cc4)n2)CSC3)c1 [Example 34, 2-(3-(4-((4-(1H-pyrazol-4-yl)phenyl)amino)-5,7-dihydrothieno[3,4-d]pyrimidin-2-yl)phenoxy)-N-isopropylacetamide]
10 to 100	CCC(CC)NC(=O)COc1cccc(-c2nc3c(c(Nc4ccc(-c5cn[nH]c5)cc4)n2)COC3)c1 [Example 27, 2-(3-(4-((4-(1H-pyrazol-4-yl)phenyl)amino)-5,7-dihydrofuro[3,4-d]pyrimidin-2-yl)phenoxy)-N-(pentan-3-yl)acetamide dihydrochloride]
251 to 500	O=C(COc1cccc(-c2nc(Nc3ccc(-c4cn[nH]c4)cc3)c3occc3n2)c1)NC1CCCC1 [Example 9]
101 to 250	CC(C)(C)CNC(=O)COc1cccc(-c2nc3c(c(Nc4ccc(-c5cn[nH]c5)cc4)n2)COC3)c1 [Example 30, 2-(3-(4-((4-(1H-pyrazol-4-yl)phenyl)amino)-5,7-dihydrofuro[3,4-d]pyrimidin-2-yl)phenoxy)-N-neopentylacetamide]
251 to 500	CC(C)CNC(=O)COc1cccc(-c2nc(Nc3ccc(-c4cn[nH]c4)cc3)c3ncsc3n2)c1 [Example 25, 2-(3-(7-((4-(1H-pyrazol-4-yl)phenyl)amino)thiazolo[5,4-d]pyrimidin-5-yl)phenoxy)-N-isobutylacetamide]
101 to 250	CC(C)(C)NC(=O)COc1cccc(-c2nc(Nc3ccc(-c4cn[nH]c4)cc3)c3sccc3n2)c1 [Example 42, 2-(3-(4-((4-(1H-pyrazol-4-yl)phenyl)amino)thieno[3,2-d]pyrimidin-2-yl)phenoxy)-N-(tert-butyl)acetamide]
101 to 250	O=C(COc1cccc(-c2nc3c(c(Nc4ccc(-c5cn[nH]c5)cc4)n2)COCC3)c1)NC1CCCC1 [Example 51, 2-(3-(4-((4-(1H-pyrazol-4-yl)phenyl)amino)-7,8-dihydro-5H-pyrano[4,3-d]pyrimidin-2-yl)phenoxy)-N-cyclopentylacetamide]
10 to 100	CC(C)(C)CNC(=O)COc1cccc(-c2nc3c(c(Nc4ccc(-c5cn[nH]c5)cc4)n2)COCC3)c1 [Example 47, 2-(3-(4-((4-(1H-pyrazol-4-yl)phenyl)amino)-7,8-dihydro-5H-pyrano[4,3-d]pyrimidin-2-yl)phenoxy)-N-neopentylacetamide]
101 to 250	CC(=O)N1Cc2nc(-c3cccc(OCC(=O)NC(C)(C)C)c3)nc(Nc3ccc(-c4cn[nH]c4)cc3)c2C1 [Example 56, 2-(3-(4-((4-(1H-pyrazol-4-yl)phenyl)amino)-6-acetyl-6,7-dihydro-5H-pyrrolo[3,4-d]pyrimidin-2-yl)phenoxy)-N-(tert-butyl)acetamide]
10 to 100	CCC(C)NC(=O)COc1cccc(-c2nc3c(c(Nc4ccc(-c5cn[nH]c5)cc4)n2)COCC3)c1 (stereo not shown) [Example 41, 2-(3-(4-((4-(1H-pyrazol-4-yl)phenyl)amino)-7,8-dihydro-5H-pyrano[4,3-d]pyrimidin-2-yl)phenoxy)-N-(sec-butyl)acetamide]
101 to 250	CC(C)NC(=O)COc1cccc(-c2nc(Nc3ccc(-c4cn[nH]c4)cc3)c3cnccc3n2)c1 [Example 53, 2-(3-(4-((4-(1H-pyrazol-4-yl)phenyl)amino)pyrido[4,3-d]pyrimidin-2-yl)phenoxy)-N-isopropylacetamide]
251 to 500	O=C(COc1cccc(-c2nc(Nc3ccc(-c4cn[nH]c4)cc3)c3ncsc3n2)c1)NC1CCC1 [Example 23, 2-(3-(7-((4-(1H-pyrazol-4-yl)phenyl)amino)thiazolo[5,4-d]pyrimidin-5-yl)phenoxy)-N-cyclobutylacetamide]
10 to 100	CC(C)NC(=O)COc1cccc(-c2nc(Nc3ccc(-c4cn[nH]c4)cc3)c3cnn(C)c3n2)c1 [Example 16, 2-(3-(4-((4-(1H-pyrazol-4-yl)phenyl)amino)-1-methyl-1H-pyrazolo[3,4-d]pyrimidin-6-yl)phenoxy)-N-isopropylacetamide]
10 to 100	CCC(C)NC(=O)COc1cccc(-c2nc3c(c(Nc4ccc(-c5cn[nH]c5)cc4)n2)COC3)c1 (stereo not shown) [Example 28, 2-(3-(4-((4-(1H-pyrazol-4-yl)phenyl)amino)-5,7-dihydrofuro[3,4-d]pyrimidin-2-yl)phenoxy)-N-(sec-butyl)acetamide]

From patent US10729691B2, “Treatment of infectious diseases with glucose uptake inhibitors” (Kadmon Corporation LLC, priority 2015, dated 2020)
